Experimental data as given in PubChem BioAssay (NCI).
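How tested: cells in 96-well plates exposed to compound for 48 hours at five concentrations. GI50 = concentration required for 50% inhibition of growth. TGI marks complete inhibition of growth.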

Experiments:
Assay in all cases: growth of human tumour cells (NCI), 48 h
EKVX NSCLC = test system: EKVX NSCLC
COLO 205 colon = test system: COLO 205 colon
UACC-257 melanoma = test system: UACC-257 melanoma
OVCAR-4 ovarian = test system: OVCAR-4 ovarian
RXF 393 renal = test system: RXF 393 renal
A498 renal = test system: A498 renal
NCI-H522 lung = test system: NCI-H522 lung
RPMI-8226 leukemia = test system: RPMI-8226 leukemia
ACHN renal = test system: ACHN renal
SR leukemia = test system: SR leukemia

SMILES | GI50 (EKVX NSCLC) [µM] | TGI (EKVX NSCLC) [µM] | GI50 (COLO 205 colon) [µM] | TGI (COLO 205 colon) [µM] | GI50 (UACC-257 melanoma) [µM] | TGI (UACC-257 melanoma) [µM] | GI50 (OVCAR-4 ovarian) [µM] | TGI (OVCAR-4 ovarian) [µM] | GI50 (RXF 393 renal) [µM] | TGI (RXF 393 renal) [µM] | GI50 (A498 renal) [µM] | TGI (A498 renal) [µM] | GI50 (NCI-H522 lung) [µM] | TGI (NCI-H522 lung) [µM] | GI50 (RPMI-8226 leukemia) [µM] | TGI (RPMI-8226 leukemia) [µM] | GI50 (ACHN renal) [µM] | TGI (ACHN renal) [µM] | GI50 (SR leukemia) [µM] | TGI (SR leukemia) [µM]
Nc1nc2ccc(-c3nc4ccc5[nH]ncc5c4c4c3CCC4)cc2s1 | 0.916 | 8.05 | 0.306 | 7.14 | 0.731 | 5.58 | 0.835 | 6.25 | 0.238 | 1.77 | 0.108 | 0.624 | 0.253 | 2.52 | 0.472 | 10.5 | 0.321 | 6.58 | 0.155 | 22.4
CCOC(=O)NC(=O)c1cn(CCN2CCN(C(=O)NCCCCCCNC(=O)N3CCN(CCn4cc(C(=O)NC(=O)OCC)c(=O)[nH]c4=O)CC3)CC2)c(=O)[nH]c1=O | – | > 100 | – | > 100 | – | > 100 | – | > 100 | – | > 100 | – | > 100 | – | > 100 | – | > 100 | – | > 100 | – | > 100
O=C(NCC1CC1)c1ccc(-c2cccc(C(=O)NC3CC3)c2)cc1 | > 25 | > 25 | > 25 | > 25 | > 25 | > 25 | > 25 | > 25 | > 25 | > 25 | > 15.8 | > 25 | > 25 | > 25 | > 25 | > 25 | > 25 | > 25 | > 23.3 | > 25
